The values below come from paper PMC7849018 (Antimicrobial Agents and Chemotherapy, 2021).

Entries after “also recorded” stand apart in the source; their conditions may differ. Read-outs that look alike come from different tables or passages of the source.

Data set [1] deals with human DNA polymerase beta (Homo sapiens, UniProt P06746). Description: Enzymatic inhibition assay. The format is biochemical. The settings on record: read-out: IC50 DNA pol β.
Data set [2] addresses T1, human DNA polymerase gamma (Homo sapiens, UniProt P54098).
T1 sequence (P54098 1-1239): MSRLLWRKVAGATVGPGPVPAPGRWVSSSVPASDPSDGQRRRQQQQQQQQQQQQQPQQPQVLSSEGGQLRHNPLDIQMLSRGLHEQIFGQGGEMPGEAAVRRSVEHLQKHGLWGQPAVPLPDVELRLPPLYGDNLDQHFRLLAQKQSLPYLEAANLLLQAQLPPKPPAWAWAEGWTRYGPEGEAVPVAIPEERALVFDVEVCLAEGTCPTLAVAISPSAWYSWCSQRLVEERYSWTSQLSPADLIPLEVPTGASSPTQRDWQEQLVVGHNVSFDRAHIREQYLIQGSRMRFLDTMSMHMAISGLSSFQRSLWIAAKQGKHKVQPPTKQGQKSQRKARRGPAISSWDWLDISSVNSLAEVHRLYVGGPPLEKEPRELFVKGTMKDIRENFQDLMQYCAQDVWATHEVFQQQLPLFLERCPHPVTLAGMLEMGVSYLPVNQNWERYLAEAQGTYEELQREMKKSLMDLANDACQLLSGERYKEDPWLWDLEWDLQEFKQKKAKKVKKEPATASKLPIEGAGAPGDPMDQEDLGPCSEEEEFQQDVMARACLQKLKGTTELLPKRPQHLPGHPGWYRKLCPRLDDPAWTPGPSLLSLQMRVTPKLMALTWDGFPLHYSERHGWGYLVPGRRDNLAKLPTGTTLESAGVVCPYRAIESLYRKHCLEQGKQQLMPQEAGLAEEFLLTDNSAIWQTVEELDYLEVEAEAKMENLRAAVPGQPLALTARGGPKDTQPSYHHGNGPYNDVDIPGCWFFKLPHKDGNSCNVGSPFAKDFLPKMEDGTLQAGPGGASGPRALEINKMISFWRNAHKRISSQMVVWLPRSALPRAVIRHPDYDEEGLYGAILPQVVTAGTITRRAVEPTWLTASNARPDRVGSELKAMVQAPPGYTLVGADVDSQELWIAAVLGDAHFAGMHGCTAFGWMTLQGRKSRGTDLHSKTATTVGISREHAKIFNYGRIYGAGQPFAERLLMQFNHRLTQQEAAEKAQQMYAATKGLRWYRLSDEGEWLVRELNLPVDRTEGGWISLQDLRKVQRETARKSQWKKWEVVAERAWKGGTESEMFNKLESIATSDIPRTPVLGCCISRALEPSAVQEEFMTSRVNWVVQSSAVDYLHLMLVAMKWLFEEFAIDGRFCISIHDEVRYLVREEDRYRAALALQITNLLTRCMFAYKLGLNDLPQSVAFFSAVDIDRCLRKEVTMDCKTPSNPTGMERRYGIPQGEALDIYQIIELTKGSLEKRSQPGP
T1 sequence (Q9UHN1 26-485 partner limits assumed): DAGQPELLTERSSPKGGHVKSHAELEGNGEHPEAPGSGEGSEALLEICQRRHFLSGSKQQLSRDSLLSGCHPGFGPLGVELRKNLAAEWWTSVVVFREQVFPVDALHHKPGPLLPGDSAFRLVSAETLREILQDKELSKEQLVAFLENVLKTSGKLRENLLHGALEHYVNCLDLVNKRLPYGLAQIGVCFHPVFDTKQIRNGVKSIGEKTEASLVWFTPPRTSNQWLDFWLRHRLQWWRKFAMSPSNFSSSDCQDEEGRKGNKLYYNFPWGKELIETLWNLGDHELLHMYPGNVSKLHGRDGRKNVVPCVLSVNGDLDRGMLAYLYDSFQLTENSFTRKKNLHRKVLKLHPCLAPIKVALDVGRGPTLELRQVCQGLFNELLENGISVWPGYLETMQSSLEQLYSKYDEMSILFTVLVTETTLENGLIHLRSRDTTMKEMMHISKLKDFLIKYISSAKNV
Description: Enzymatic inhibition assay. The format is biochemical. The conditions noted are these: read-out: IC50 DNA pol γ.

For the next data set, the target named is human POLRMT (Homo sapiens, UniProt O00411). Description: Enzymatic inhibition assay. The settings on record: read-out: IC50 POLRMT pol. The format is biochemical.
Data set [3] deals with T2, human mitochondrial DNA Pol γ (Homo sapiens, UniProt P54098).
T2 sequence (P54098 1-1239): T1 sequence (P54098 1-1239)
T2 sequence (Q9UHN1 26-485 partner limits assumed): T1 sequence (Q9UHN1 26-485 partner limits assumed)
The data set is described as follows: Single nucleotide incorporation assay. The conditions noted are these: 50 μM nucleotide analog; relative to natural dNTP at same concentration. The format is biochemical.

Data set [4] is described as follows: in vitro. The settings on record: human.
Data set [5] is described as follows: Mitochondrial respiration. It is filed as cell-based. The conditions noted are these: human; for CC50 at 3 day: PHH cells (primary human hepatocytes); for CC50 at 3 days: primary human hepatocytes (PHH).
A short description of data set [6]: Mitochondrial respiration. The format is cell-based. The conditions noted are these: human, PC-3 cells, 3-day treatment.
Data set [7] can be described thus: in vitro. The conditions noted are these: human, CC50, Myeloid progenitors; 11- to 14-day treatment.
Another data set has as its system PC-3. The conditions noted are these: read-out: 5-day CC50 PC-3 cells Anaerobic (glucose).
For another data set, the system named is HepG2. The conditions noted are these: read-out: 5-day CC50 HepG2 cells Anaerobic (glucose).
Data set [8] deals with COX-1 (mitochondrial DNA-encoded cytochrome c oxidase, complex IV) protein level. Description: Mitochondrial protein synthesis assay. The format is cell-based. The conditions noted are these: human, PC-3 cells.
Data set [9] in a line: Mitochondrial respiration. It is filed as cell-based. The conditions noted are these: human, RPTEC cells, RPTECs, 3-day treatment.
A short description of data set [10]: in vitro. The conditions noted are these: human. This is another data set of the same source.
Data set [11] has as its system mitochondrial DNA (mtDNA) in HepG2 cells. Description: Mitochondrial DNA content by qPCR. The conditions noted are these: continual treatment for 10 days. It is filed as cell-based, human.
Data set [12] in a line: Mitochondrial respiration. The format is cell-based. The settings on record: human, HepG2 cells, 3-day treatment.
Data set [13] in a line: Cellular ATP alongside the mitochondrial protein synthesis assay. The settings on record: human, PC-3 cells.
The test system of data set [14] is SDH-A (nuclear DNA-encoded succinate dehydrogenase, complex II) protein level. Description: Mitochondrial protein synthesis assay. The format is cell-based. The settings on record: human, PC-3 cells.
Data set [15] has as its system HepG2 galactose-adapted cell line. The settings on record: read-out: 5-day CC50 HepG2 cells Aerobic (galactose).
The conditions of data set [16]: hospitalized patients with COVID-19; RDV for up to 10 days; cited from earlier work.
The conditions of data set [17]: cited from earlier work.
Data set [18] relates to PC-3 galactose-adapted cell line. The conditions noted are these: CC50 galactose versus glucose culture.
For another data set, the system named is HepG2 cells. Description: Intracellular reactive oxygen species level. The format is cell-based, human. The conditions noted are these: 24-h incubation.
The conditions of data set [19]: moderate COVID-19, cited from earlier work.
The next data set has as its system Stimulated PBMC. The conditions noted are these: 5-day treatment.
The test system of data set [20] is SARS-CoV-2 in human airway epithelial cells (HAE). The settings on record: read-out: EC50 against SARS-CoV-2; cited from earlier work.
For data set [21] the following is noted: cited from earlier work. This is another data set of the same source.
[22] abbreviates: pH 7.4, 3-day CC50 Spare respiration.
Setting [23] is: healthy subjects, repeat-dose study 150 mg once daily, reversible.
Setting [24] is: humans, repeated dosing of 150 mg.

human POLRMT, sequence (O00411 42-1230): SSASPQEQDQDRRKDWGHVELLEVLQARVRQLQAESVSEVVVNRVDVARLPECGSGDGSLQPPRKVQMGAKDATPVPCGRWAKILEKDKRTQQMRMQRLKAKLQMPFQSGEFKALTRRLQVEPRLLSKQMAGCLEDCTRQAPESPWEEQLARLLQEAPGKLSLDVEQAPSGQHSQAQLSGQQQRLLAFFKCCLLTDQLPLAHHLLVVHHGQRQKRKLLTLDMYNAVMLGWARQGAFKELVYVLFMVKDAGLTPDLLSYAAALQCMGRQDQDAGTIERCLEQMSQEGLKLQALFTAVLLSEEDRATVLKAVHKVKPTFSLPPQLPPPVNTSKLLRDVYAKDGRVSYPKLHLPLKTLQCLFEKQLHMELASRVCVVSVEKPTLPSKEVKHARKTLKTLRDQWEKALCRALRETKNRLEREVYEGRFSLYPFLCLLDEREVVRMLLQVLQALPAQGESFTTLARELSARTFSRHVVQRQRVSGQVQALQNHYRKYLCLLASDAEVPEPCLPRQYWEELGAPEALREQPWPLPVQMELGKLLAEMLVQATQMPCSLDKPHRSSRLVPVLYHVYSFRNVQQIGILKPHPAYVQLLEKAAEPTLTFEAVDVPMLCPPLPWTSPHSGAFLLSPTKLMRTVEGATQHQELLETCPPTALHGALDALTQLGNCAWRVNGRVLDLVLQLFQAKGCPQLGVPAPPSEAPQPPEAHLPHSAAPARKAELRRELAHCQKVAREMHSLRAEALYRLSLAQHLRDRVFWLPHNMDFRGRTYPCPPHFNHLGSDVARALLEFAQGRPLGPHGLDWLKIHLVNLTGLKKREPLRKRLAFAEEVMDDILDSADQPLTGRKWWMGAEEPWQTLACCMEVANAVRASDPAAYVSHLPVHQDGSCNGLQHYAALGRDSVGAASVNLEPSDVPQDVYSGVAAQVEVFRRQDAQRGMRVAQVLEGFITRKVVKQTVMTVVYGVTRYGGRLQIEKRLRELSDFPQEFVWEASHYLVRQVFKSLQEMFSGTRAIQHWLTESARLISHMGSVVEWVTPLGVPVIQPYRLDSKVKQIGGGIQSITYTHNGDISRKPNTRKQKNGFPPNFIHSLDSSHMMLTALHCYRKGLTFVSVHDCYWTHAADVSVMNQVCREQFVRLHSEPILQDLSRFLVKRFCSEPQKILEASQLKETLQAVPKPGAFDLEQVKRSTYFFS

Regarding `Cc1cn([C@H]2CC[C@@H](COP(=O)(O)OP(=O)(O)OP(=O)(O)O)O2)c(=O)[nH]c1=O` [3′dTTP], the IC50 in data set [1] came out at 1.9 µM; in data set [2] it was 1.2 µM.

Regarding `Nc1nc2c(ncn2[C@@H]2O[C@H](COP(=O)(O)OP(=O)(O)OP(=O)(O)O)C[C@H]2O)c(=O)[nH]1` [3′deoxy GTP, 3′-deoxy GTP], on human POLRMT, the IC50 is 4.2 µM.

As to `Nc1ncn([C@H]2C[C@H](O)[C@@H](COP(=O)(O)OP(=O)(O)OP(=O)(O)O)O2)c(=O)n1` [5-aza-2′-dCTP, 5-aza-2′-deoxyCTP], the “Rate of incorporation (% of natural dNTP or NTP), DNA polymerase γ” value in [3] was 79% ± 8%.

In the case of `N#C[C@@]1(c2ccc3c(N)ncnn23)O[C@H](CO)[C@@H](O)[C@H]1O` [GS-441524], the CC50 at 5 days (in “in vitro [4]”; in data set [8]; in the data set “in vitro [10]”; in data set [13]; in data set [14]) was greater than 100 µM throughout. Further, the CC50 at 3 day in data set [5], in data set [6] (3-day CC50 Cellular ATP), in data set [6] (3-day CC50 Total DNA content), in data set [6] (setting [22]), in data set [9] (3-day CC50 Cellular ATP) and in data set [9] (3-day CC50 Total DNA content) was greater than 100 µM throughout. For the same compound, the CC50 at 3 day in data set [9] (setting [22]), in data set [12] (3-day CC50 Cellular ATP), in [12] (3-day CC50 Total DNA content) and in [12] (setting [22]) was greater than 100 µM each time. For the same compound, the CC50 at 3 days in data set [5] and in [5] (pH 7.4) was greater than 100 µM each time. In addition, the CC50 was 11.7 ± 9.6 µM in “in vitro [7]”, greater than 100 µM with PC-3 and greater than 100 µM with HepG2. Further, the “effect on mtDNA content (in words)” value in data set [11] is “overall minimal”.

Take `CCC(CC)COC(=O)[C@H](C)N[P@](=O)(OC[C@H]1O[C@@](C#N)(c2ccc3c(N)ncnn23)[C@H](O)[C@@H]1O)Oc1ccccc1` [RDV, Remdesivir]: the CC50 stood at 11.1 ± 1.2 µM in [15], 5.1 ± 2.3 µM in the data set “in vitro [7]” and 14.8 ± 5.8 µM with Stimulated PBMC. For the same compound, in data set [16], the “adverse events of increased amino transferase levels, including ALT, AST, or both” value is 6 % of subjects. Moreover, the “adverse events of elevations in ALT” value in [17] (5-day RDV treatment) is recorded as 6%; in [17] (10-day RDV treatment), 8%; in data set [19] (5-day RDV), 34%; in data set [19] (10-day RDV), 32%. Moreover, the “adverse events of elevations in AST” value in data set [17] (5-day RDV treatment) is 5%; in data set [17] (10-day RDV treatment), 7%; in data set [19] (5-day RDV), 32%; in data set [19] (10-day RDV), 32%. Besides, in [18], the “enhancement of cytotoxicity by aerobic conditions” value came to 6 fold. Besides, the CC50 at 3 day worked out at 7.8 ± 2.2 µM in [5]; 24 ± 1.4 µM in data set [6] (3-day CC50 Cellular ATP); 2.5 ± 0.1 µM in [6] (setting [22]); 16.9 ± 4.1 µM in data set [9] (3-day CC50 Cellular ATP); 14.3 ± 3.3 µM in data set [9] (3-day CC50 Total DNA content); 7.3 ± 2.7 µM in data set [9] (setting [22]). Moreover, the CC50 at 3 day in data set [12] (3-day CC50 Cellular ATP) was determined as 7.9 ± 0.1 µM; in data set [12] (3-day CC50 Total DNA content), 6.3 ± 0.9 µM; in data set [12] (setting [22]), 10.6 ± 0.1 µM. For the same compound, the figures for the CC50 at 3 days in [5] and in [5] (pH 7.4) were 13.4 ± 1.7 µM and 7.6 ± 1.9 µM, respectively. For the same compound, the “decrease in cell viability” value with HepG2 cells (100 μM) came out at 60%. Besides, in the data set on HepG2 cells (100 μM, vs DMSO control), the “increase in ROS levels” value is listed as 60%. Besides, in the data set with HepG2 cells (3.1 to 50 μM), the “effect on ROS levels” value is given as “no significant increase in ROS levels; also recorded: no effect on ROS”. The entries for the “Grade 3 or 4 adverse events, ALT” value in data set [19] (5-day RDV) and in data set [19] (10-day RDV) were 2% and 3%, respectively. In addition, the results for the “Grade 3 or 4 adverse events, AST” value in data set [19] (5-day RDV) and in data set [19] (10-day RDV) were 3% and 1%, respectively. Moreover, the EC50 in data set [20] is 0.0099 µM. In data set [21] (setting [23]), the “treatment-emergent grade 1 or 2 ALT elevations” value is reported as 50%. Moreover, the “treatment-emergent grade 1 or 2 AST elevations” value in [21] (setting [23]) is given as 44%. Besides, the “plasma Cmax” value in data set [21] (setting [24]) is on record as 2,720 ng/ml. The t1/2 in [21] (setting [24]) is 1.11 h. In addition, the Cmax in [21] (read-out: plasma Cmax, humans, repeated dosing of 150 mg) was 4.5 µM. Moreover, the CC50 at 5 days came out at 8.9 ± 1.1 µM in [8], 1.4 ± 0.1 µM in “in vitro [10]”, 11.3 ± 3.3 µM in data set [13] and 8.6 ± 1.3 µM in data set [14]. In addition, the “effect on mtDNA content (in words)” value in [11] is “lack of dose response”.
